Experimental data reported in patent US20090062122A1, “Cotton Growth Regulator” (FMC Corporation, priority 2006, published 2009).

How the values were obtained:
cotton, variety D&PL 555 [1] = test: % defoliation of cotton plants, field trial; format: in vivo; settings: 20% open boll application, 1 replicate
Experimental: (§1) The trial was performed on cotton, variety D&PL 555. The formulated test compounds were diluted to the appropriate concentrations with water to which a crop oil concentrate (1% to 2% v/v) or a non-ionic surfactant (0.25% v/v) was added. The application of the test composition as a cotton plant growth regulator was performed using pressurized, over-the-top spray equipment consisting of a research scale boom sprayer. Deposit of the test composition was primarily to the top of the cotton plants, minimizing spray deposition to lower branches, leaves and fruit. The finished spray volume was 10 gallons per acre, with sprayer nozzle design, orientation and nozzle pressures chosen to prevent spray drift. Applications were made at first sign of cotton boll opening and at 15%, 20% and 40% open bolls.
(§2) The experimental design used randomized plots with 1 to 4 treatment rates of test composition and from 1 to 10 replications depending on the test (sees tables below). The size of each experimental plot was about 15 m^2. Testing was performed in Texas, North Carolina, Mississippi and Georgia.
(§3) Percent desiccation, percent defoliation, percent terminal control and percent open bolls were evaluated at 7 and 14 days after application (DAA) of the test composition. Inspection of cotton plants for insect control of armyworm larvae was performed at 2 DAA and insect damage to bolls was performed at the time of harvest
Defoliation refers to removal of leaves. Percent defoliation rating approximates the proportion of leaves of all sizes shed per 100 leaves present prior to application of the cotton growth regulator compound. An evaluation of the foliage in the untreated check plots was first undertaken. Then the test plots were individually evaluated. The percent of leaves dropped by the plants in the treated plot was determined using observations within the plot and comparisons to foliage in the untreated plot.
(§4) The results, shown as the mean of the indicated number of replications, were compared with results observed in the same trials with an untreated control.

cotton, variety D&PL 555 [2] = test: % desiccation of cotton leaves, field trial; format: in vivo
Experimental: as §1, §2, §3
Desiccation refers to leaves or portions of leaves dried to debris following tissue death. […] An evaluation of the condition of leaves in the untreated check plots were observed. Then the test plots were individually evaluated. The percent of all leaves completely or partially desiccated by the test application were recorded, based upon live leaves and leaf debris within the test plot relative to foliage present in the untreated plot.
as §4

## C[n+]1ccc(-c2cc[n+](C)cc2)cc1.[Cl-].[Cl-] [paraquat, 1,1′-dimethyl-4,4′-bipyridinium dichloride]
cotton, variety D&PL 555 [1]; 0.13 lb ai/a, 14 DAA
  % Defoliation: 8%
cotton, variety D&PL 555 [2]; 20% open boll application, 0.13 lb ai/a, 14 DAA, 1 replicate
  % Desiccation: 90%

## CCCCSP(=O)(SCCCC)SCCCC [tribufos, S,S,S-tributyl phosphorotrithioate]
cotton, variety D&PL 555 [1]; 0.14 lb ai/a, 7 DAA
  % Defoliation: 30%
cotton, variety D&PL 555 [2]; 20% open boll application, 0.14 lb ai/a, 7 DAA, 1 replicate
  % Desiccation: 78%

## CC1=C(C)S(=O)(=O)CCS1(=O)=O [dimethipin, 2,3-dihydro-5,6-dimethyl-1,4-dithiin-1,1,4,4-tetraoxide]
cotton, variety D&PL 555 [1]; 0.23 lb ai/a, 7 DAA
  % Defoliation: 28%
cotton, variety D&PL 555 [2]; 20% open boll application, 0.23 lb ai/a, 7 DAA, 1 replicate
  % Desiccation: 40%

## COC(=O)CSc1cc(/N=c2\sc(=O)n3n2CCCC3)c(F)cc1Cl [fluthiacet-methyl, methyl [[2-chloro-4-fluoro-5-[(tetrahydro-3-oxo-1H,3H-[1,3,4]thiadiazolo[3,4-a]pyridazin-1-ylidine)amino]phenyl]thio]acetate]
cotton, variety D&PL 555 [2]; first open boll application, 0.0018 lb ai/a, 7 DAA, 1 replicate
  % Desiccation: 25%
cotton, variety D&PL 555 [2]; first open boll application, 0.0018 lb ai/a, 14 DAA, 1 replicate
  % Desiccation: 17%

## CCOC(=O)COc1cc(-c2nn(C)c(OC(F)F)c2Cl)c(F)cc1Cl [pyraflufen-ethyl, ethyl 2-chloro-5-[4-chloro-5-(difluoromethoxy)-1-methyl-1H-pyrazol-3-yl]-4-fluorophenoxyacetate]
cotton, variety D&PL 555 [2]; first open boll application, 0.0008 lb ai/a, 7 DAA, 3 replicates
  % Desiccation: 13%
cotton, variety D&PL 555 [2]; first open boll application, 0.0008 lb ai/a, 14 DAA, 3 replicates
  % Desiccation: 11%
cotton, variety D&PL 555 [2]; first open boll application, 0.0016 lb ai/a, 7 DAA, 3 replicates
  % Desiccation: 19%
cotton, variety D&PL 555 [2]; first open boll application, 0.0016 lb ai/a, 14 DAA, 3 replicates
  % Desiccation: 13%

## CCCCCOC(=O)COc1cc(N2C(=O)C3=C(CCCC3)C2=O)c(F)cc1Cl [flumiclorac-pentyl ester, pentyl [2-chloro-4-fluoro-5-(1,3,4,5,6,7-hexahydro-1,3-dioxo-2H-isoindol-2-yl)phenoxy]acetate]
cotton, variety D&PL 555 [2]; first open boll application, 0.027 lb ai/a, 7 DAA, 3 replicates
  % Desiccation: 16%
cotton, variety D&PL 555 [2]; first open boll application, 0.027 lb ai/a, 14 DAA, 3 replicates
  % Desiccation: 13%
cotton, variety D&PL 555 [2]; first open boll application, 0.04 lb ai/a, 7 DAA, 3 replicates
  % Desiccation: 19%
cotton, variety D&PL 555 [2]; first open boll application, 0.04 lb ai/a, 14 DAA, 3 replicates
  % Desiccation: 12%

## CC(C)N.O=C(O)CNCP(=O)(O)O [glyphosate, N-(phosphonomethyl)glycine isopropylamine salt]
cotton, variety D&PL 555 [1]; 0.5 lb ai/a, 14 DAA
  % Defoliation: 7%
cotton, variety D&PL 555 [2]; 20% open boll application, 0.5 lb ai/a, 14 DAA, 1 replicate
  % Desiccation: 67%
